#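 Here, GI50 denotes the concentration required for 50% inhibition of growth. TGI marks complete inhibition of growth.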
# Assays:
# Test in all cases: NCI-60 cell line screen, 384-well format
# [1] = test system: 786-0 renal
# [2] = test system: A498 renal
# [3] = test system: A549 NSCLC
# [4] = test system: ACHN renal
# [5] = test system: BT-549 breast
# [6] = test system: CAKI-1 renal
# [7] = test system: CCRF-CEM leukemia
# [8] = test system: COLO 205 colon
# [9] = test system: DU-145 prostate
# [10] = test system: EKVX NSCLC
# [11] = test system: HCC-2998 colon
# [12] = test system: HCT-116 colon
# [13] = test system: HCT-15 colon
# [14] = test system: HL-60(TB) leukemia
# [15] = test system: HOP-62 NSCLC
# [16] = test system: HOP-92 NSCLC
# [17] = test system: HS 578T breast
# [18] = test system: HT29 colon
# [19] = test system: IGROV1 ovarian
# [20] = test system: K-562 leukemia
# [21] = test system: KM12 colon
# [22] = test system: LOX IMVI melanoma
# [23] = test system: M14 melanoma
# [24] = test system: MALME-3M melanoma
# [25] = test system: MCF7 breast
# [26] = test system: MDA-MB-231 breast
# [27] = test system: MDA-MB-435 melanoma
# [28] = test system: MDA-MB-468 breast
# [29] = test system: MOLT-4 leukemia
# [30] = test system: NCI-H226 lung
# [31] = test system: NCI-H23 lung
# [32] = test system: NCI-H322M lung
# [33] = test system: NCI-H460 NSCLC
# [34] = test system: NCI-H522 lung
# [35] = test system: NCI/ADR-RES ovarian
# [36] = test system: OVCAR-3 ovarian
# [37] = test system: OVCAR-4 ovarian
# [38] = test system: OVCAR-8 ovarian
# [39] = test system: PC-3 prostate
# [40] = test system: RPMI-8226 leukemia
# [41] = test system: RXF 393 renal
# [42] = test system: SF-268 CNS
# [43] = test system: SF-295 CNS
# [44] = test system: SF-539 CNS
# [45] = test system: SK-MEL-28 melanoma
# [46] = test system: SK-MEL-5 melanoma
# [47] = test system: SK-OV-3 ovarian
# [48] = test system: SN12C renal
# [49] = test system: SNB-19 CNS
# [50] = test system: SNB-75 CNS
# [51] = test system: SR leukemia
# [52] = test system: SW-620 colon
# [53] = test system: T-47D breast
# [54] = test system: TK-10 renal
# [55] = test system: U251 glioblastoma
# [56] = test system: UACC-257 melanoma
# [57] = test system: UACC-62 melanoma
# [58] = test system: UO-31 renal
# [59] = test system: SK-MEL-2 melanoma
smiles,measurement,setting,value
CC(C)(O)CS(=O)(=O)Nc1ccc2c(c1)CCN(C(=O)COc1cccnc1)C2,GI50,[1],18.6 nM
same,TGI,[1],34 nM
same,GI50,[2],390 nM
same,TGI,[2],3610 nM
same,GI50,[3],234 nM
same,TGI,[3],494 nM
same,GI50,[4],37 nM
same,TGI,[4],127 nM
same,GI50,[5],21.6 nM
same,TGI,[5],40.1 nM
same,GI50,[6],20.4 nM
same,TGI,[6],37.9 nM
same,GI50,[7],< 10 nM
same,TGI,[7],< 10 nM
same,GI50,[8],< 10 nM
same,TGI,[8],< 10 nM
same,GI50,[9],22.6 nM
same,TGI,[9],45.9 nM
same,GI50,[10],46.4 nM
same,TGI,[10],164 nM
same,GI50,[11],21.7 nM
same,TGI,[11],42.1 nM
same,GI50,[12],< 10 nM
same,TGI,[12],< 10 nM
same,GI50,[13],33.9 nM
same,TGI,[13],108 nM
same,GI50,[14],< 10 nM
same,TGI,[14],< 10 nM
same,GI50,[15],25 nM
same,TGI,[15],52.2 nM
same,GI50,[16],121 nM
same,TGI,[16],320 nM
same,GI50,[17],17.3 nM
same,TGI,[17],32.4 nM
same,GI50,[18],36 nM
same,TGI,[18],102 nM
same,GI50,[19],19 nM
same,TGI,[19],34.2 nM
same,GI50,[20],< 10 nM
same,TGI,[20],10.9 nM
same,GI50,[21],17.3 nM
same,TGI,[21],43.2 nM
same,GI50,[22],33.1 nM
same,TGI,[22],170 nM
same,GI50,[23],19.1 nM
same,TGI,[23],33.6 nM
same,GI50,[24],83.5 nM
same,TGI,[24],258 nM
same,GI50,[25],23.1 nM
same,TGI,[25],48 nM
same,GI50,[26],43.5 nM
same,TGI,[26],135 nM
same,GI50,[27],20 nM
same,TGI,[27],34.6 nM
same,GI50,[28],21.7 nM
same,TGI,[28],39.7 nM
same,GI50,[29],< 10 nM
same,TGI,[29],< 10 nM
same,GI50,[30],871 nM
same,TGI,[30],26000 nM
same,GI50,[31],29.1 nM
same,TGI,[31],78.7 nM
same,GI50,[32],10.9 nM
same,TGI,[32],38.9 nM
same,GI50,[33],239 nM
same,TGI,[33],435 nM
same,GI50,[34],< 10 nM
same,TGI,[34],< 10 nM
same,GI50,[35],145 nM
same,TGI,[35],279 nM
same,GI50,[36],< 10 nM
same,TGI,[36],12.2 nM
same,GI50,[37],31.3 nM
same,TGI,[37],78.2 nM
same,GI50,[38],< 10 nM
same,TGI,[38],< 10 nM
same,GI50,[39],10.8 nM
same,TGI,[39],23.2 nM
same,GI50,[40],43.6 nM
same,TGI,[40],163 nM
same,GI50,[41],18.3 nM
same,TGI,[41],35.6 nM
same,GI50,[42],20 nM
same,TGI,[42],35 nM
same,GI50,[43],29.5 nM
same,TGI,[43],74.7 nM
same,GI50,[44],< 10 nM
same,TGI,[44],< 10 nM
same,GI50,[45],22.8 nM
same,TGI,[45],43.4 nM
same,GI50,[46],20.8 nM
same,TGI,[46],40.3 nM
same,GI50,[47],10 nM
same,TGI,[47],23.6 nM
same,GI50,[48],< 10 nM
same,TGI,[48],< 10 nM
same,GI50,[49],14.9 nM
same,TGI,[49],29.6 nM
same,GI50,[50],17.8 nM
same,TGI,[50],32.6 nM
same,GI50,[51],29 nM
same,TGI,[51],60.4 nM
same,GI50,[52],< 10 nM
same,TGI,[52],< 10 nM
same,GI50,[53],< 10 nM
same,TGI,[53],< 10 nM
same,GI50,[54],32.3 nM
same,TGI,[54],92 nM
same,GI50,[55],< 10 nM
same,TGI,[55],12.8 nM
same,GI50,[56],143 nM
same,TGI,[56],590 nM
same,GI50,[57],31.3 nM
same,TGI,[57],74.9 nM
same,GI50,[58],19.5 nM
same,TGI,[58],35.7 nM
Cc1c(-c2c(-c3ccc(F)o3)sc3ncnc(O[C@H](Cc4ccccc4OCc4ccnn4CC(F)(F)F)C(=O)O)c23)ccc(OCCN2CCN(C)CC2)c1Cl,GI50,[1],2110 nM
same,TGI,[1],4500 nM
same,GI50,[2],3340 nM
same,TGI,[2],9930 nM
same,GI50,[4],6940 nM
same,TGI,[4],18800 nM
same,GI50,[13],10400 nM
same,TGI,[13],22200 nM
same,GI50,[14],< 10 nM
same,TGI,[14],< 10 nM
same,GI50,[25],< 10 nM
same,TGI,[25],1180 nM
same,GI50,[28],< 10 nM
same,TGI,[28],< 10 nM
same,GI50,[29],< 10 nM
same,TGI,[29],< 10 nM
same,GI50,[31],11.3 nM
same,TGI,[31],31.8 nM
same,GI50,[35],27400 nM
same,TGI,[35],95700 nM
same,GI50,[40],< 10 nM
same,TGI,[40],< 10 nM
same,GI50,[43],1660 nM
same,TGI,[43],3060 nM
same,GI50,[59],< 10 nM
same,TGI,[59],< 10 nM
same,GI50,[51],< 10 nM
same,TGI,[51],< 10 nM
same,GI50,[54],3270 nM
same,TGI,[54],8770 nM
same,GI50,[57],< 10 nM
same,TGI,[57],10.2 nM
same,GI50,[58],15600 nM
same,TGI,[58],29100 nM

# Source: PubChem BioAssay (NCI)
